The results in this text go back to ChEMBL document CHEMBL1240295, “Specificity and mechanism of action of some commonly used protein kinase inhibitors” (Biochem J, 2000).

Each structure is given as a SMILES string. pIC50: −log10 of the molar value.

Assay [1] can be described thus: Inhibition of PHK from rabbit skeletal muscle. The assay is classed as tissue-based, Oryctolagus cuniculus, Muscle tissue.
Assay [2] addresses Serine/threonine-protein kinase N2 (Homo sapiens) (UniProt Q16513). Kind of assay: Inhibition of His-tagged human PRK2 expressed in HEK293 cells at 10 uM. The assay is classed as cell-based.
Assay [3] can be described thus: Inhibition of MAPKAPK1b from rabbit skeletal muscle. Format: tissue-based, Oryctolagus cuniculus, Muscle tissue.
The species entered for assay [4] is Oryctolagus cuniculus. The following applies: at 10 µM.
Description: Inhibition of rabbit MKK1 expressed in Escherichia coli at 10 uM
Assay [5] concerns the target Mitogen-activated protein kinase 1 (Homo sapiens) (UniProt P28482). The following applies: at 10 µM.
Description: Inhibition of Gst-tagged human MAPK2/ERK2 expressed in Escherichia coli at 10 uM
Assay [6] addresses Mitogen-activated protein kinase 8 (Homo sapiens) (UniProt P45983). Conditions: at 10 µM.
Description: Inhibition of Gst-tagged human JNK1a1 expressed in Escherichia coli at 10 uM
Assay [7] concerns the target Mitogen-activated protein kinase 14 (Homo sapiens) (UniProt Q16539). The following applies: at 10 µM.
Description: Inhibition of Gst-tagged human SAPK2a/p38 expressed in Escherichia coli at 10 uM
Assay [8] concerns the target Mitogen-activated protein kinase 11 (Homo sapiens) (UniProt Q15759). Conditions: at 10 µM.
Description: Inhibition of Gst-tagged human SAPK2b/p38--beta-2 expressed in Escherichia coli at 10 uM
The target of assay [9] is T1, Mitogen-activated protein kinase 12 (Homo sapiens) (UniProt P53778).
T1 sequence (whole entry): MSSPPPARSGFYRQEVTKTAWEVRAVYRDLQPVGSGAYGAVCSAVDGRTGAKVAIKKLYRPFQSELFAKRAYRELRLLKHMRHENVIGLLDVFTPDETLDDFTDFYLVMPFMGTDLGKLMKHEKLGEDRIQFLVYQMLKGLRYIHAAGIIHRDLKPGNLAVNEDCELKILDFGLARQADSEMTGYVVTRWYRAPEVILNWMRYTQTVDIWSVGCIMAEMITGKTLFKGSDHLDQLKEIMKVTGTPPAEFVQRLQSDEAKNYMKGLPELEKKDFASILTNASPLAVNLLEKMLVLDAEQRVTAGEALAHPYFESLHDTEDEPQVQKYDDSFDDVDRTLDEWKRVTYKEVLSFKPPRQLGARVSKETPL
Conditions: at 10 µM.
Description: Inhibition of Gst-tagged human SAPK3/p38gamma expressed in Escherichia coli at 10 uM

For assay [10], the target named is T2, Mitogen-activated protein kinase 13 (Homo sapiens) (UniProt O15264).
T2 sequence (whole entry): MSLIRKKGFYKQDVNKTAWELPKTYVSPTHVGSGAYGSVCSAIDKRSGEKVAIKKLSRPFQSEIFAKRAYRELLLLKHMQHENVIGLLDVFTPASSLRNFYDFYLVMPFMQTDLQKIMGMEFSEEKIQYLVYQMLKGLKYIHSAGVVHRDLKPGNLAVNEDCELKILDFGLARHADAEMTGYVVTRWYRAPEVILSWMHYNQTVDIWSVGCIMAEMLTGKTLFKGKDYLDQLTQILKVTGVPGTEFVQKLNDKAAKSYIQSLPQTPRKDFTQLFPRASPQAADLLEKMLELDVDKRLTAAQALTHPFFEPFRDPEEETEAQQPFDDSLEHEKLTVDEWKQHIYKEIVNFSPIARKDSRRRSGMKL
Conditions: at 10 µM.
Description: Inhibition of Gst-tagged human SAPK4/p38delta expressed in Escherichia coli at 10 uM

The species named for assay [11] is Oryctolagus cuniculus. The following applies: Muscle tissue, at 10 µM.
Description: Inhibition of MAPKAPK1b from rabbit skeletal muscle at 10 uM
In assay [12] the target is MAP kinase-activated protein kinase 2 (Homo sapiens, UniProt P49137). The following applies: at 10 µM.
MAP kinase-activated protein kinase 2, sequence (P49137 whole entry, looked up): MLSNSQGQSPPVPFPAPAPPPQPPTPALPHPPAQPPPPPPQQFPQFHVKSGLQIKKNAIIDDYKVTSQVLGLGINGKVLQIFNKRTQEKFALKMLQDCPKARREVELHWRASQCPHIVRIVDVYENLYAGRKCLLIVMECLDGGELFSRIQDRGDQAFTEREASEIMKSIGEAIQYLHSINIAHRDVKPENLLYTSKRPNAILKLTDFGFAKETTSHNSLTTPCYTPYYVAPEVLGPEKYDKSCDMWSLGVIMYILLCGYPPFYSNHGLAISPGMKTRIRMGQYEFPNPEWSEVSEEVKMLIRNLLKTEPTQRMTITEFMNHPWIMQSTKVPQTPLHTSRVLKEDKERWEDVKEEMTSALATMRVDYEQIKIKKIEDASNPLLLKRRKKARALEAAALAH
Description: Inhibition of Gst-tagged human MAPKAPK2 expressed in Escherichia coli at 10 uM
In assay [13] the target is Ribosomal protein S6 kinase alpha-5 (Homo sapiens, UniProt O75582). Conditions: Sf9, at 10 µM.
Ribosomal protein S6 kinase alpha-5, sequence (O75582 whole entry, looked up): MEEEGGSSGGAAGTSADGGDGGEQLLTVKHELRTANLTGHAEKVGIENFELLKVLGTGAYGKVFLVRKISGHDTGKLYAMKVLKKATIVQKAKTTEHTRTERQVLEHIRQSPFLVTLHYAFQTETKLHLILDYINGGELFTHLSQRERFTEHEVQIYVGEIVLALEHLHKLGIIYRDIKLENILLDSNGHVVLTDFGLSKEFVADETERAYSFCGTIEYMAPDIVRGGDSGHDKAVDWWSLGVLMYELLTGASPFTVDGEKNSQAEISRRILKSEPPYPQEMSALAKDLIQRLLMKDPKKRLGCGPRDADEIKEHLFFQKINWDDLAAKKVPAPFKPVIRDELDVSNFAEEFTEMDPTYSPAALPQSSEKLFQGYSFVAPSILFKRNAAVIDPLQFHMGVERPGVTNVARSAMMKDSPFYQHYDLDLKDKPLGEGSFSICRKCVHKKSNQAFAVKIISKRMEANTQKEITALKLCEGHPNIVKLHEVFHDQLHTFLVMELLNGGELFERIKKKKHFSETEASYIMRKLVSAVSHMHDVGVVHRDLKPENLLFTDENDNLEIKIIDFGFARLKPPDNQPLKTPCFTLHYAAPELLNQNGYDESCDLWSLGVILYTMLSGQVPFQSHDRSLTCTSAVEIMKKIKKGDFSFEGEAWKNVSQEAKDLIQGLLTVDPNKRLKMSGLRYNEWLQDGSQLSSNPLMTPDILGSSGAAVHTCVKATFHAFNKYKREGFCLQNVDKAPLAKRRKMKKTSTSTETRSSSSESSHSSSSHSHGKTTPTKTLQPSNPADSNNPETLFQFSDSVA
Description: Inhibition of His-tagged human MSK1 expressed in Sf9 cells at 10 uM
Assay [14] addresses T3, MAP kinase-activated protein kinase 5 (Homo sapiens) (UniProt Q8IW41).
T3 sequence (whole entry): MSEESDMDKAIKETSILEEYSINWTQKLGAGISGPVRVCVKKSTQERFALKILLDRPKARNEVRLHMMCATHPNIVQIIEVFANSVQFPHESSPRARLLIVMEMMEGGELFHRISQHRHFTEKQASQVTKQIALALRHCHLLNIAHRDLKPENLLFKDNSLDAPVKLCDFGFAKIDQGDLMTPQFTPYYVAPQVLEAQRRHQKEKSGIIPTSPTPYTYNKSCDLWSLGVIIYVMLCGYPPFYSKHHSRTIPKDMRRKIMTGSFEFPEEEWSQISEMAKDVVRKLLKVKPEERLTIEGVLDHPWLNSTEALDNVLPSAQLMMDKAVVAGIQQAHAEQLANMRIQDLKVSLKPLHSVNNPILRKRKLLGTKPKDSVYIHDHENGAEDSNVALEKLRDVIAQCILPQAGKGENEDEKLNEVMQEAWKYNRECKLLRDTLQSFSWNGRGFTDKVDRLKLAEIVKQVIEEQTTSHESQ
The following applies: Sf9, at 10 µM.
Description: Inhibition of His-tagged human PRAK expressed in Sf9 cells at 10 uM

The species entered for the next assay is Bos taurus. Conditions: at 10 µM.
Assay [15] addresses Protein kinase C alpha type (Homo sapiens, UniProt P17252). The following applies: at 10 µM.
Description: Inhibition of His-tagged human PKCalpha expressed in Escherichia coli at 10 uM
Assay [16] concerns the target RAC-alpha serine/threonine-protein kinase (Homo sapiens) (UniProt P31749). Conditions: Sf9, at 10 µM.
Description: Inhibition of human PKBalpha expressed in SF9 cells at 10 uM
Assay [17] has as its target T4, Serine/threonine-protein kinase Sgk1 (Homo sapiens) (UniProt O00141).
T4 sequence (whole entry): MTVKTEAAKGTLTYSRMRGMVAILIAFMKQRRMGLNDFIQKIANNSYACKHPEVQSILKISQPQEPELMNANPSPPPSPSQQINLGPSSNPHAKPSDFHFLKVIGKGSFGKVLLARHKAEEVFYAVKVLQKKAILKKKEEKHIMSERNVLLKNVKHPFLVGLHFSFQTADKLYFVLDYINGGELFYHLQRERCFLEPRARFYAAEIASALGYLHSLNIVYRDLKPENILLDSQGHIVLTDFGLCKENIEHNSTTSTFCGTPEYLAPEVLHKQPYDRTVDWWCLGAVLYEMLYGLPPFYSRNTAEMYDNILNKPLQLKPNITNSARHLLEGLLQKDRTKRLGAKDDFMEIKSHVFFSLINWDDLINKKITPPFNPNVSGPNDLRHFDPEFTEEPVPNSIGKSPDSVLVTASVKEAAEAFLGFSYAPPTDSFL
The following applies: Sf9, at 10 µM.
Description: Inhibition of His-tagged human SGK expressed in Sf9 cells at 10 uM

In assay [18] the target is Ribosomal protein S6 kinase beta-1 (Homo sapiens, UniProt P23443). The following applies: at 10 µM.
Description: Inhibition of His-tagged human S6K1 expressed in Escherichia coli at 10 uM
In assay [19] the target is Glycogen synthase kinase-3 beta (Homo sapiens, UniProt P49841). The following applies: Sf21, at 10 µM.
Description: Inhibition of His-tagged human GSK3b expressed in Sf21 cells at 10 uM
Assay [20] has as its target Rho-associated protein kinase 2 (Rattus norvegicus) (UniProt Q62868). Conditions: Sf9, at 10 µM.
Description: Inhibition of rat ROCK2 expressed in Sf9 cells at 10 uM
The species named for a further assay is Rattus norvegicus. The following applies: at 10 µM.
The target of assay [21] is Casein kinase II (Homo sapiens) (UniProt P67870+P68400+P19784). Conditions: Sf9, at 10 µM.
Description: Inhibition of His-tagged human CK2 expressed in Sf9 cells at 10 uM
For assay [22], the species on record is Oryctolagus cuniculus. The following applies: Muscle tissue, at 10 µM. The source holds these as a separate data set.
Description: Inhibition of PHK from rabbit skeletal muscle at 10 uM
Assay [23] addresses T5, Serine/threonine-protein kinase Chk1 (Homo sapiens) (UniProt O14757).
T5 sequence (whole entry): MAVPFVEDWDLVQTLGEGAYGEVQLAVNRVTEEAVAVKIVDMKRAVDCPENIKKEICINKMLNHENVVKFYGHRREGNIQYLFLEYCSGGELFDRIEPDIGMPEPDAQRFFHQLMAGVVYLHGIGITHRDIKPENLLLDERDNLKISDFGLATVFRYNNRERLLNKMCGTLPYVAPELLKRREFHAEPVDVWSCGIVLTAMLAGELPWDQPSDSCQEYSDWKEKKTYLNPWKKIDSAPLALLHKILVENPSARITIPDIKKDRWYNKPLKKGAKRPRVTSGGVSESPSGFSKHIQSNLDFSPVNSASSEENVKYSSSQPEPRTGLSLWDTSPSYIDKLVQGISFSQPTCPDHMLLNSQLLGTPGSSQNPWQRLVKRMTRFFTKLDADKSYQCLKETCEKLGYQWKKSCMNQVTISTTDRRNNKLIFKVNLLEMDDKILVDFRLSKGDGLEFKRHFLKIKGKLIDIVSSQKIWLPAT
The following applies: at 10 µM.
Description: Inhibition of His-tagged human CHK1 expressed in Escherichia coli at 10 uM

Another assay is filed under the species Mus musculus. Kind of assay: Inhibition of EGF-induced activation of MKK1 in mouse […] at 2 nM. The assay is classed as cell-based.
Assay [24] has as its target Tyrosine-protein kinase Lck (Homo sapiens) (UniProt P06239). The following applies: Sf9, at 10 µM.
Description: Inhibition of His-tagged human LCK expressed in Sf9 cells at 10 uM

Mitogen-activated protein kinase 11 (Homo sapiens), sequence (Q15759 whole entry): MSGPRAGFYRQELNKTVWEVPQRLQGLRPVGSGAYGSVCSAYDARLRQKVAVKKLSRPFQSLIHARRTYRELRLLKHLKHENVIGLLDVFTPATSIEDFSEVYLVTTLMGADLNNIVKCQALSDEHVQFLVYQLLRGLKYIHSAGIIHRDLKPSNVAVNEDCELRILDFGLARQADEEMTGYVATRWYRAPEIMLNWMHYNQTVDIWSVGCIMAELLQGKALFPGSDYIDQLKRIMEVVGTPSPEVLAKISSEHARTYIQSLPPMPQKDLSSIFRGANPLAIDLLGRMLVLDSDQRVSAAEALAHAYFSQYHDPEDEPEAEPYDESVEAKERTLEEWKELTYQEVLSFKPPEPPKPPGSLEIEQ
Rho-associated protein kinase 2 (Rattus norvegicus), sequence (Q62868 whole entry, looked up): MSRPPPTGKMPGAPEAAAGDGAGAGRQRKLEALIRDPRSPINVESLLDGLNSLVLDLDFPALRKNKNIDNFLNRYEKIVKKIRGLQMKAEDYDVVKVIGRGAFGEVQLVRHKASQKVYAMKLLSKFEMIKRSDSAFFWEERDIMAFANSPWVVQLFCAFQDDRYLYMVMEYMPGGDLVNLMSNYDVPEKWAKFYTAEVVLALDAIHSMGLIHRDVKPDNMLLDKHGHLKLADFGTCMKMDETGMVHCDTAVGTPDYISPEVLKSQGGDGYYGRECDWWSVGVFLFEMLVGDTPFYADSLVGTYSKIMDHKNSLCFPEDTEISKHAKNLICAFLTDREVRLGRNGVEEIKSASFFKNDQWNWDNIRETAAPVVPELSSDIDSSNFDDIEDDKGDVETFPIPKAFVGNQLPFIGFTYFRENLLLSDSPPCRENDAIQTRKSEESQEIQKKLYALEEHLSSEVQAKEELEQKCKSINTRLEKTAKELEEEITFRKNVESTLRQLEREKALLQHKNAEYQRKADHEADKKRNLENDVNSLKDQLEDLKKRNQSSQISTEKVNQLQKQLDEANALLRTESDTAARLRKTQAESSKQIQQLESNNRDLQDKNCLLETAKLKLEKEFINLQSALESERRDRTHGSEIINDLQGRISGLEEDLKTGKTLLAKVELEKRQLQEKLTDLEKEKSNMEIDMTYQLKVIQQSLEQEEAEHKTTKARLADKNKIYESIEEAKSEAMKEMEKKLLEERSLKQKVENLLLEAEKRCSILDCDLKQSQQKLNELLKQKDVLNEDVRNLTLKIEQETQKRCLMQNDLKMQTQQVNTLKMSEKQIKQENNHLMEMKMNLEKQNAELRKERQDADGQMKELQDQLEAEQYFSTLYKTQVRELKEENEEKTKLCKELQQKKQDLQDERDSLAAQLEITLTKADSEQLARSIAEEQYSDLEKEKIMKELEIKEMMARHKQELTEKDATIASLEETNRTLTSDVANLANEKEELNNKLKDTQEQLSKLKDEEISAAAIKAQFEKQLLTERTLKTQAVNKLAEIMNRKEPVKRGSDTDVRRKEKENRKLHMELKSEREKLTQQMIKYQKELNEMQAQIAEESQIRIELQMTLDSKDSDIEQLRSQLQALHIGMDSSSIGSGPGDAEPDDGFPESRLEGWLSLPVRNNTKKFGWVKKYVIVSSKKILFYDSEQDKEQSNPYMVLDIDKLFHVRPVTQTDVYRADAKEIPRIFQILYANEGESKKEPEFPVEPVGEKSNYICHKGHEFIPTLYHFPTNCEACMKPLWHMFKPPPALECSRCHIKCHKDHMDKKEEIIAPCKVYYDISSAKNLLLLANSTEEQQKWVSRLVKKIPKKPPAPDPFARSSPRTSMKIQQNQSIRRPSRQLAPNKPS
RAC-alpha serine/threonine-protein kinase (Homo sapiens), sequence (P31749 whole entry): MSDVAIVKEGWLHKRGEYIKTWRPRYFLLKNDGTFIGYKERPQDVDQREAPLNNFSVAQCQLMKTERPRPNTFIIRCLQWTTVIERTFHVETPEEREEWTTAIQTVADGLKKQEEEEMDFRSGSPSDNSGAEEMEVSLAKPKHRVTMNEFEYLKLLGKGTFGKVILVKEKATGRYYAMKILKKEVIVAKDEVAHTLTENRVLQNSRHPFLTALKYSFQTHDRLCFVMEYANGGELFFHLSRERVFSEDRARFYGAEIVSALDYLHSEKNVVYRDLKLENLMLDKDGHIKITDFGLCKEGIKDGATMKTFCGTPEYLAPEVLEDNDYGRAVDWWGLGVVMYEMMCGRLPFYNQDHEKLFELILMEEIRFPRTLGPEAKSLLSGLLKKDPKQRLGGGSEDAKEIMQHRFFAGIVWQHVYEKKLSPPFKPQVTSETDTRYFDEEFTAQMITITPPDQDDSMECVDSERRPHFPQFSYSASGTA
Mitogen-activated protein kinase 14 (Homo sapiens), sequence (Q16539 whole entry): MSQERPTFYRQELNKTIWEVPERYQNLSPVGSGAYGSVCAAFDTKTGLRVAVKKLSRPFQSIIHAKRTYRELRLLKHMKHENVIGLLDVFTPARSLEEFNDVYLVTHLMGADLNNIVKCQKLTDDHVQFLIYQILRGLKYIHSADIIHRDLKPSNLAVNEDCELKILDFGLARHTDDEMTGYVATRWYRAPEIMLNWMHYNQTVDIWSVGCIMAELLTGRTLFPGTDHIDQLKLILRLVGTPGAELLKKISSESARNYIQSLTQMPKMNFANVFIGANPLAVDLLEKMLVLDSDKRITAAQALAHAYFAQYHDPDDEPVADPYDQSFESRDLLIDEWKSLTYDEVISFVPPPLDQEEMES
Mitogen-activated protein kinase 1 (Homo sapiens), sequence (P28482 whole entry): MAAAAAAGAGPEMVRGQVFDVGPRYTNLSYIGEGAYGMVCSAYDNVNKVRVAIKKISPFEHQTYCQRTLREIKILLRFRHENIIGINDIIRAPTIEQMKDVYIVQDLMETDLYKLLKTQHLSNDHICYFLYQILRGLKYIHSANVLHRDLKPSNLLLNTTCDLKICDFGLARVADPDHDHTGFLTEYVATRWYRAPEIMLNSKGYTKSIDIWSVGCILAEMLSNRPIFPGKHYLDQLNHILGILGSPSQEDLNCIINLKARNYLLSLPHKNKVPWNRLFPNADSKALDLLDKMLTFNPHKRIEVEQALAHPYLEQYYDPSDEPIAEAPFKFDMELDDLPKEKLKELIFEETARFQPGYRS
Description for Bos taurus: Inhibition of bovine heart PKA at 10 uM

Usually pIC50 stands for −log10 of the IC50, conventionally taken in molar units. For orientation: inhibition means the relative decrease from the control value, in per cent. For `C[C@@H](N)[C@H]1CC[C@H](C(=O)Nc2ccncc2)CC1` [Y-27632], the pIC50 was 4.36 in assay [1] and 4.72 in assay [3]. This compound gave an inhibition in assay [2] of 6%. For the same compound, the residual activity in the assay listed under Oryctolagus cuniculus [4] was 103%; in assay [5] it was 94%; in assay [6], 98%; in assay [7], 94%; in assay [8], 107%; in assay [9], 100%. Besides, the residual activity in assay [10] is 95%; in [12], 99%; in assay [13] it was 57%; in [14], 104%; in the assay listed under Bos taurus, 91%; in [15] it was 98%. Besides, the residual activity in assay [16] came to 90%; in assay [17] it was 109%; in [18] it was 94%; in [19], 92%; in assay [20], 13%; in the assay filed under Rattus norvegicus it was 95%. Moreover, the residual activity in [21] was 98%; in assay [23], 99%. The level, % of control in the assay filed under Oryctolagus cuniculus [11] was found to be 72%; in the assay filed under Oryctolagus cuniculus [22], 81%.
Turning to `O=C(NOCC1CC1)c1ccc(F)c(F)c1Nc1ccc(I)cc1Cl`, the inhibition in the assay listed under Mus musculus amounted to 50%. The residual activity in assay [5] turned out to be 107%; in assay [6], 102%; in assay [7], 100%; in [8], 119%; in assay [9], 100%; in [10], 98%. The residual activity in assay [12] was 98%; in assay [13] it was 118%; in assay [14], 71%; in the assay filed under Bos taurus it was 105%; in assay [15] it was 99%; in assay [16] it was 89%. Moreover, the residual activity in [17] was 111%; in [19] it was 83%; in assay [20] it was 107%; in the assay filed under Rattus norvegicus it was 89%; in assay [21], 96%; in assay [24], 99%. Moreover, the residual activity in assay [23] is 104%. For the same compound, the level, % of control in the assay filed under Oryctolagus cuniculus [22] stood at 117%.
